Measured values reported in patent US8841121B2, “Vector, vector combinations, methods and kit thereof” (Jawaharlal Nehru Centre for Advanced Scientific Research, priority 2010, dated 2014).
“Also recorded” adds a separate entry of the source.

Experiments:
[1] = test system: HEK 293 cells; assay: Cytotoxicity / cell death by light microscopy in transfected HEK 293 cells; type: cell-based; conditions: for Cytotoxicity / cell death (light microscopy): HEK 293 cells, increasing concentrations of the inhibitor
Protocol: Tat up-regulates GFP expression (middle panels). […] Thus, a cytotoxic molecule down-regulates GFP without being a Tat inhibitor.
293 cells are transiently transfected with pPRIME-LTR-GFP: anti-RFP miRNA (p604.344 and p604.620), CMV-RFP and EF-1α-Tat (YU-2) vectors. Cells are treated with different concentrations of the SMI 24 h after transfection. GFP and RFP expression is recorded 24 h after vector transfection. LM, Light microscopy.
(§1) DRB (5, 6-dichloro-1-beta-D-ribofuranosylbenzimidazole) a small molecule inhibitor, blocks an essential cellular enzyme CDK9, a kinase, critical for general transcription of many genes and therefore is cytotoxic. […] The Tat inhibition potential as well as cytotoxicity of DRB at 3 different concentrations is tested in HEK 293 cells using plasmid combinations as defined in Table-2. Images of the cells are captured using light microscopy, GFP or RFP filters at 36 h. […] Thus, the GFP-based assay identifies false hits, but not the instant RFP-based assay.

[2] = molecular target: T1, Tat (Human immunodeficiency virus type 1 group M subtype B, UniProt P35965); assay: Tat-inducible GFP / anti-RFP shRNA reporter assay, transient transfection in HEK293 cells; type: cell-based, HIV-1; set-up: The full-length Tat cDNA from molecular clone YU-2 (subtype-B) is made from cellular RNA of 293 cells; expressed in transfected cells; host or cells: HEK293 (293) cells, transient transfection; pcDNA3.1 CMV-Tat (YU-2) or EF-1α-Tat (YU-2) vector
T1 sequence (P35965 whole entry): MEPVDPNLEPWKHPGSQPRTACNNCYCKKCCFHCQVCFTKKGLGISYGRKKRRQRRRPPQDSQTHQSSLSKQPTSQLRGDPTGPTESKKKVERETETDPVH
Protocol: (§2) Vector DNA Transfection: All the proof-of-the-concept assays embedded in this document are performed using the transient transfection method formats. Most of the experiments are done using host cells such as HEK293 cells and preferably the standard calcium transfection protocol. Further, few experiments are also performed using HeLa cells. A commercial lipid formulation is used for this and is used following the suppliers instructions.
siRNA Transfection: Anti-Tat siRNA molecules are introduced into cells using a commercial lipid-nanoparticle formulation as per the instructions from the supplier.
Adding Tat Inhibitors to the Cell and Screening to Identify Anti-viral/Tat Molecules: The assays are performed using the following format although several variations are introduced depending on the need. • a) Cell Plating: Cells are plated in 96-well culture plates the previous evening and on the morning of the experiment, they are at 30-40% occupancy and in the logarithmic growth phase. • b) DNA Vector Transfection: A combination of 4 vectors is used in most of the assays. The total DNA concentration ranged from 1 to 2 μg per a 24-well plate or 100-200 ng per 96-well plate depending on the context. • 1. Anti-RFP siRNA vector (pPRIME-LTR-GFP: anti-RFP miRNA (p604.344):100-600 ng • 2. Anti-RFP siRNA vector (pPRIME-LTR-GFP: anti-RFP miRNA (p604.620): 100-600 ng • 3. CMV-Tat (YU-2) vector:50-200 ng • 4. CMV-RFP vector (pCMV-RFP-IRES-Puro) (FIGS. 21):50-200 ng
Cells are monitored for GFP or RFP expression after 24 h after subjected to an anti-Tat compound.
Anti-Tat Compound Treatment: A small molecule inhibitor (at concentrations mentioned in individual experiments above) or anti-Tat siRNA (20-100 ng per well) are used. The anti-Tat agent is used immediately after plasmid DNA transfection or after 12-24 h. Cells are removed from the wells by trypsinization and made into single cell suspension in phosphate buffered saline. The mean fluorescence intensity of the cells was determined using flow cytometry. Alternatively, cells were removed from the well using trypsinization and suspended in PBS. The intensity of the fluorescence was quantitatively determined using a standard fluorimeter. Fluorescent protein gene expression is measured at 24, 36, 48 and 72 h from vector transfection, at one time point or multiple time points.
as §1

[3] = molecular target: T1, Tat; assay: Tat-inducible GFP / anti-RFP shRNA reporter assay, transient transfection in HeLa cells; type: cell-based, HIV-1; set-up: The full-length Tat cDNA from molecular clone YU-2 (subtype-B) is made from cellular RNA of 293 cells; expressed in transfected cells; pcDNA3.1 CMV-Tat (YU-2) or EF-1α-Tat (YU-2) vector; conditions: 25 μM, 24 h
Protocol: HeLa cells are transiently transfected with pPRIME-LTR-GFP: anti-RFP miRNA (p604.344 and p604.620), CMV-RFP and EF-1α-Tat (YU-2) vectors. Cells are treated with 25 μM DRB. GFP and RFP expression is recorded 24 h after vector transfection.
as §2
The assay also identifies SMI which inhibit cellular factors needed for Tat. 5,6-Dichlorobenzimidazole Riboside (DRB) is a potent inhibitor of CDK9 which is a cellular factor necessary for Tat function. […] Thus the assay of the present disclosure also identify such SMI that have an indirect effect on Tat function.

[4] = molecular target: T2, Tat (Human immunodeficiency virus type 1 group M subtype B, UniProt P04608); conditions: HeLa cells, increasing concentration; cited from earlier work
T2 construct: host or cells: HeLa cells
T2 sequence (P04608 whole entry): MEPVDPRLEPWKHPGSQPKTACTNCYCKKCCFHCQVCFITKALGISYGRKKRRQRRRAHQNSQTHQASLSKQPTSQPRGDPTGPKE

[5] = HEK 293 cells, with Tat, increasing/different concentrations of the inhibitor

| SMILES | Cytotoxicity / cell death (light microscopy) [1] | GFP expression [2, 5] | RFP expression [2, 5] | also measured |
| --- | --- | --- | --- | --- |
| CC[C@H](CO)Nc1nc(NCc2ccccc2)c2ncn(C(C)C)c2n1 [Roscovitine] | – | – | – | Cytotoxicity ([1]; 293 cells, 3 μM): cytotoxicity; GFP expression ([2]; 293 cells, 3 μM, 48 h): reduced expression of GFP; RFP expression ([2]; 293 cells, 3 μM, 48 h): not in enhanced expression of RFP |
| COc1ccc(C(=O)C2=C3OC(C)(C)[C@@H](CC=C(C)C)C[C@@]34C[C@@H](CC=C(C)C)C(C)(C)[C@@](CC=C(C)C)(C2=O)C4=O)cc1O [LTK14] | progressively increased cell death | down regulation of GFP | not enhanced RFP expression | – |
| COc1cccc2c1C(=O)c1c(O)c3c(c(O)c1C2=O)C[C@@](O)(C(C)=O)C[C@@H]3O[C@H]1C[C@H](NCc2ccc(CN[C@H]3C[C@H](O[C@H]4C[C@](O)(C(C)=O)Cc5c(O)c6c(c(O)c54)C(=O)c4c(OC)cccc4C6=O)O[C@@H](C)[C@H]3O)cc2)[C@H](O)[C@H](C)O1 [WP631] | toxic to the cell at higher concentrations; also recorded: causes apoptosis at higher concentrations | marginally reduced GFP expression; also recorded: marginal down regulation of GFP | small relief in RFP suppression is evident, this is not significant; also recorded: insignificant levels of up-regulation of RFP; also recorded: partially relieves RFP gene expression | Cytotoxicity (cell density under light microscopy) ([1]; 293 cells, WP631 treatment (100 nM)): Low level cytotoxicity; RFP expression ([2]; 293 cells, 100 nM): partially relieves Tat-mediated inhibition of RFP |
| OC[C@H]1O[C@@H](n2cnc3cc(Cl)c(Cl)cc32)[C@H](O)[C@@H]1O [DRB, 5,6-dichloro-1-beta-D-ribofuranosylbenzimidazole] | enhanced cell death with increasing concentrations; also recorded: increasing levels of cytotoxicity; also recorded: significant levels of cell death | GFP expression also is reduced; also recorded: progressive reduction in GFP expression; also recorded: progressive down-regulation of GFP expression | should have been up-regulated, which is not the case here; also recorded: no concomitant up-regulation of RFP expression | GFP expression [3]: relative down regulation of GFP; RFP expression [3]: relieves Tat-mediated RFP suppression; also recorded: relieves RFP gene expression |
| O=C1CN=C(c2ccc[nH]2)c2cc(Cl)ccc2N1 [R05-3335] | – | – | – | GFP expression [4]: GFP expression is down-regulated |
| CN1CC[C@H](c2c(O)cc(O)c3c(=O)cc(-c4ccccc4Cl)oc23)[C@H](O)C1 [Flavipiridol] | progressive increase in cytotoxicity | – | – | – |
